The record followed here is US20230150951A1, “2,5- OR 2,6-DISUBSTITUTED HYDROQUINONE DERIVATIVES WITH AT LEAST ONE CARBOXY, SULFO OR AMIDO GROUP USEFUL AS MEDICAMENTS” (OM PHARMA SA, priority 2020, published 2023).

Type in all cases: cell-based
In test [1] the test system is Human neutrophils. Nature of the test: Neutrophil adhesion under static conditions. To be noted: fMLP-stimulated adhesion to fibrinogen; method: 40 μM and 80 μM, concentration of the value not stated. In outline:
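Donor buffy-coat neutrophils (3×10^6/ml, PBS with Ca/Mg, 10% FCS, pH 7.2) preincubated 30 min at 37° C with 40 μM or 80 μM compound, then stimulated 1 min at 37° C with 1 nM fMLP on fibrinogen-coated glass. Adherent cells fixed and counted by computer; mean ± SD, unpaired t-test.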

The subject of test [2] is IL-12p70. Nature of the test: Cytokine release after LPS induction on human whole blood: IL-12p70.
Test [3] has as its system IFN-gamma. Nature of the test: Cytokine release after LPS induction on human whole blood: IFNγ. The protocol: Aim of this in vitro method is to assess compounds effects on release of a panel of cytokines from whole blood following lipopolysaccharide (LPS) induced inflammatory reaction. Whole blood was incubated with compounds for 1 h prior to LPS induction. Cytokine levels in blood were measured using a multiplex FACS-based panel.
IC50 values determined for the tested compounds expressed in microM [μM] and the values for the inhibition of cytokines were listed for each compound.
Effect on cytokines release after LPS induction was performed on the compounds dissolved in DMSO or H2O to reach 10-fold concentrated stock solutions and dissolved in culture media.
Test system: Whole blood was removed from a single donor (into lithium heparin coated tubes; BD Vacutainer; 367886) and diluted 1:5 with RPMI 1640 (Thermo Fisher, 61870036). Within 30 minutes of sampling, blood was incubated with compounds for 1 h prior to LPS stimulation (O111:B4—Sigma L4391; 10 ng/ml final concentration). Stimulation continued under standard cell culture conditions (37° C. with 5% CO2) overnight (18 h), after which plates were centrifuged and supernatant removed and frozen at −80° C. until used for analyses.
Dilution of test compounds: 10×concentrated solutions (concerning to the final assay concentrations) of each test compound were prepared with the appropriate solvent (in DMSO or in water). These 10× compound solutions (10 μl) were then added to 90 μl pre-diluted whole blood (whole blood: RPMI1640, 1:5) resulting in the final assay concentration.
Test method: Diluted whole blood (80 μl) was pre-incubated with compounds (10 μl) to give final assay concentrations of 100, 30, 10, 3, 1, 0.3 and 0.1×10^−6M. Blood was incubated at 37° C. with 5% CO2 for 1 h. LPS was diluted in cell culture media to a concentration of […]; 10 μl was added to the whole blood to give a final concentration of 10 ng/ml. Plates were incubated at 37° C. for 18 h. Plates were centrifuged at 3,000 RPM for 5 minutes at 4° C. and supernatant removed and frozen at −80° C. until FACS analysis was carried out.
Cytokine release was measured using a custom multiplex system (ELISA Genie) according to manufacturers instructions. Prepared samples were run on an Attune NxT flow cytometer (Thermo Fisher).
Quantification of cytokine release inhibition: known concentration standards were run as part of the cytokine panel to allow quantification of each cytokine concentration in each sample. This was carried out using FCAP Array v3.0 software.
Results: The dose response relationship on cytokine release following LPS induction of inflammatory response in whole blood was assessed for all compounds. IC50 values were determined for each compound for a panel of cytokines (GM-CSF, IFN-gamma, IL-1beta, IL-2, IL-4, IL-5, IL-6, IL-8, IL-9, IL-10, IL-12p40, IL-13, IL-17A, IL-17F, IL-18, IL-21, IL-22, IL-33, TGF-beta, TNF-alpha, TNF-beta).

Setting [4] is: Homo sapiens, LPS 10 ng/ml, 18 h, read-out: Whole Blood: IL-12p70 IC50.
[5] abbreviates: human whole blood, inhibition of LPS induced inflammation, read-out: IC50 IL-12p70.
Setting [6] is: Homo sapiens, LPS 10 ng/ml, 18 h, read-out: Whole Blood: IFNγ IC50.
The mark [7] stands for this setting: human whole blood, inhibition of LPS induced inflammation, read-out: IC50 IFNγ.

Read-outs that look alike come from different tables or passages of the source.

In test [1], `O=C(O)c1cc(NC(=O)c2cc(O)c(C(=O)O)cc2O)cc(C(=O)O)c1` [Ia-015a, 5-(4-carboxy-2,5-dihydroxybenzamido)isophthalic acid] registered a Neutrophil adhesion inhibition of 17.38%. Also, the IC50 (commonly the concentration that gives 50% inhibition) is 120 nM in test [2] (setting [4]), 120 nM in test [2] (setting [5]), > 100000 nM in test [3] (setting [6]) and 100000 nM in test [3] (setting [7]).
`CCOC(=O)c1cc(NC(=O)c2cc(O)c(C(=O)OCC)cc2O)cc(NC(=O)c2cc(O)c(C(=O)OCC)cc2O)c1` [Ib-010a-E3, ethyl 3,5-bis(2,5-dihydroxy-4-ethoxycarbonylbenzoylamino)benzoate]: in test [1], the Neutrophil adhesion inhibition is listed as 79.5%. In addition, the 50% inhibitory concentration (IC50) in test [2] (setting [4]) came out at 840 nM; in test [2] (setting [5]), 840 nM; in test [3] (setting [6]) it was 2790 nM; in test [3] (setting [7]), 2790 nM.
